Source: ChEMBL document CHEMBL2074222, “Transport properties of nonsteroidal anti-inflammatory drugs by organic anion transporter 1 expressed in Xenopus laevis oocytes” (Mol Pharmacol, 1999)

Columns and labels:
Format in all cases: functional, cell-based, Oocyte
[1] = biological target: T1, Solute carrier family 22 member 6 (Rattus norvegicus, UniProt O35956); experiment: TP_TRANSPORTER: inhibition of PAH uptake in Xenopus laevis oocytes
T1 sequence (O35956 whole entry): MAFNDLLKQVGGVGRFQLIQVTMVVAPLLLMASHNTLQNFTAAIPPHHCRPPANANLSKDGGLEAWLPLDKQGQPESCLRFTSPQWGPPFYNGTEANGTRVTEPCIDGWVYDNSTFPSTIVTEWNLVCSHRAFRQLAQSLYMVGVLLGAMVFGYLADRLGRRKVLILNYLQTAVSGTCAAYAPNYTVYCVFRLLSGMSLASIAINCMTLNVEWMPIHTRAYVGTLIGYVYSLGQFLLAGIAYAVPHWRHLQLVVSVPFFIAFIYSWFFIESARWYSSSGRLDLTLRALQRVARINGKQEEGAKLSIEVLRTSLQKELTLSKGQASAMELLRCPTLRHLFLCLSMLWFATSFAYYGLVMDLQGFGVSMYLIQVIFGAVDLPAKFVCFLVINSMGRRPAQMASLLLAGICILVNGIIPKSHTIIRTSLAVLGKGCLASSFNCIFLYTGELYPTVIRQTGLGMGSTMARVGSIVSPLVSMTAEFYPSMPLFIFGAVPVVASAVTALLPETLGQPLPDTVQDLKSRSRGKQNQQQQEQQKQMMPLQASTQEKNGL

[2] = biological target: T2, Solute carrier family 22 member 6 (SLC22A6) (Rattus norvegicus, UniProt O35956); experiment: TP_TRANSPORTER: inhibition of PAH uptake (PAH: 2 uM, […]: 1000 uM) in Xenopus laevis oocytes; conditions: probe PAH
T2 sequence (O35956 whole entry): T1 sequence (O35956 whole entry)

[3] = biological target: T2, Solute carrier family 22 member 6 (SLC22A6); experiment: TP_TRANSPORTER: inhibition of PAH uptake (PAH: 2 uM, Antipyrine: 1000 uM) in Xenopus laevis oocytes; conditions: probe PAH
[4] = biological target: T2, Solute carrier family 22 member 6 (SLC22A6); experiment: TP_TRANSPORTER: inhibition of PAH uptake (PAH: 2 uM, Benzydamine: 1000 uM) in Xenopus laevis oocytes; conditions: probe PAH
[5] = biological target: T2, Solute carrier family 22 member 6 (SLC22A6); experiment: TP_TRANSPORTER: inhibition of PAH uptake (PAH: 2 uM, Diclofenac: 1000 uM) in Xenopus laevis oocytes; conditions: probe PAH
[6] = biological target: T2, Solute carrier family 22 member 6 (SLC22A6); experiment: TP_TRANSPORTER: inhibition of PAH uptake (PAH: 2 uM, Diflunisal: 1000 uM) in Xenopus laevis oocytes; conditions: probe PAH
[7] = biological target: T2, Solute carrier family 22 member 6 (SLC22A6); experiment: TP_TRANSPORTER: inhibition of PAH uptake (PAH: 2 uM, Flurbiprofen: 1000 uM) in Xenopus laevis oocytes; conditions: probe PAH
[8] = biological target: T2, Solute carrier family 22 member 6 (SLC22A6); experiment: TP_TRANSPORTER: inhibition of PAH uptake (PAH: 2 uM, Ketoprofen: 1000 uM) in Xenopus laevis oocytes; conditions: probe PAH
[9] = biological target: T2, Solute carrier family 22 member 6 (SLC22A6); experiment: TP_TRANSPORTER: inhibition of PAH uptake (PAH: 2 uM, Meclofenamate: 1000 uM) in Xenopus laevis oocytes; conditions: probe PAH
[10] = biological target: T2, Solute carrier family 22 member 6 (SLC22A6); experiment: TP_TRANSPORTER: inhibition of PAH uptake (PAH: 2 uM, Phenylbutazone: 1000 uM) in Xenopus laevis oocytes; conditions: probe PAH
[11] = biological target: T2, Solute carrier family 22 member 6 (SLC22A6); experiment: TP_TRANSPORTER: inhibition of PAH uptake (PAH: 2 uM, Tolmetin: 1000 uM) in Xenopus laevis oocytes; conditions: probe PAH

`CC(=O)Nc1ccc(O)cc1` [ACETAMINOPHEN] showed a Ki [1] of 2100 µM.
`Cc1c(N(C)C)c(=O)n(-c2ccccc2)n1C` [AMINOPYRINE] was tested, and the inhibition at 1000 µM [2] was 23.8%.
For `Cc1cc(=O)n(-c2ccccc2)n1C` [ANTIPYRINE], the inhibition at 1000 µM [3] was 37.8%.
`NCc1ccccc1` [BENZYLAMINE] showed an inhibition at 1000 µM [4] of 60%.
`O=C(O)Cc1ccccc1Nc1c(Cl)cccc1Cl` [DICLOFENAC] gave an inhibition at 1000 µM [5] of 100%.
Work on `O=C(O)c1cc(-c2ccc(F)cc2F)ccc1O` [DIFLUNISAL] yielded an inhibition at 1000 µM [6] of 100%.
For `CC(C(=O)O)c1ccc(-c2ccccc2)c(F)c1` (stereo unspecified) [FLURBIPROFEN], the inhibition at 1000 µM [7] was 100%.
`COc1ccc2c(c1)c(CC(=O)O)c(C)n2C(=O)c1ccc(Cl)cc1` [INDOMETHACIN] showed a Ki [1] of 10 µM.
`CC(C(=O)O)c1cccc(C(=O)c2ccccc2)c1` (stereo unspecified) [KETOPROFEN] gave an inhibition at 1000 µM [8] of 100%.
`Cc1ccc(Cl)c(Nc2ccccc2C(=O)O)c1Cl` [MECLOFENAMIC ACID] gave an inhibition at 1000 µM [9] of 99.8%.
For `COc1ccc2cc([C@H](C)C(=O)O)ccc2c1` [NAPROXEN], the Ki [1] was 2 µM.
For `CCCCC1C(=O)N(c2ccccc2)N(c2ccc(O)cc2)C1=O` (stereo unspecified) [OXYPHENBUTAZONE ANHYDROUS], the Ki [1] was 32 µM.
`CCOc1ccc(NC(C)=O)cc1` [PHENACETIN] gave a Ki [1] of 488 µM.
`CCCCC1C(=O)N(c2ccccc2)N(c2ccccc2)C1=O` [PHENYLBUTAZONE] showed an inhibition at 1000 µM [10] of 98.8%.
With `O=C(O)CNC(=O)c1ccccc1O` [SALICYLURIC ACID] the Ki [1] was 11 µM.
For `Cc1ccc(C(=O)c2ccc(CC(=O)O)n2C)cc1` [TOLMETIN], the inhibition at 1000 µM [11] was 99.5%.
